Data taken from patent US10550144B2, “6-aryl-9-glycosylpurines and use thereof” (UNIVERZITA PALACKEHO V OLOMOUCI, priority 2014, dated 2020).
Like-named read-outs stand apart in the source and are kept apart here.

Tested on: skin fibroblasts BJ and keratinocytes HaCaT
Assay: MTT in vitro cytotoxicity test on skin cells
Assay type: cell-based, human
Description: MTT assay is a standard test of toxicity based on photometric measurement of the ability of metabolically active cells to reduce MTT (3-(4,5-dimethylthiazol-2-yl)-2,5-diphenyltetrazolium bromide). Using the assay, the effects of 72 hour treatments with several concentrations of the compounds (sixfold dilution, maximal concentration=50 microM) on viability of skin fibroblasts BJ and keratinocytes HaCaT were evaluated. About 5,000 cells were seeded per well of a 96-well plate 24 hours before the treatment. DMSO vehiculum was used as a negative control. After 72 hour treatment, new medium with MTT (Sigma, M2128) was added to a final concentration of 0.5 mg/ml. After 3 hours, medium was removed and resulting formazan in the cells was dissolved in DMSO. The absorbance was measured at 570 nm (640 nm reference wavelength). The IC50 values were calculated from the dose-response curves. 6-Benzylaminopurine riboside and 6-furfurylaminopurine riboside were used as positive controls they were toxic in the MTT test.

SMILES | toxicity in the MTT test | IC50 (MTT, 72 hour treatment, maximal concentration 50 microM, BJ and HaCaT, table does not separate the cell lines) | toxicity in the MTT test (72 hour treatment)
OC[C@H]1OC(n2cnc3c(NCc4ccccc4)ncnc32)[C@H](O)[C@@H]1O (stereo partly drawn) [6-benzylaminopurin9-ribosylpurine] | toxic | ≤ 3000 nM | –
OC[C@H]1OC(n2cnc3c(NCc4ccco4)ncnc32)[C@H](O)[C@@H]1O (stereo partly drawn) [6-furfurylamino-9-ribosylpurine] | – | – | toxic
